The text below walks through data of patent US20250171437A1 (Agios Pharmaceuticals,Inc., priority 2022, published 2025).

In this assay the target is T1, human PAH with the R408W mutation (A375 R408W cells) (Homo sapiens, UniProt P00439, R408W).
T1 construct: expressed in transfected cells
T1 sequence (P00439 1-452 R408W): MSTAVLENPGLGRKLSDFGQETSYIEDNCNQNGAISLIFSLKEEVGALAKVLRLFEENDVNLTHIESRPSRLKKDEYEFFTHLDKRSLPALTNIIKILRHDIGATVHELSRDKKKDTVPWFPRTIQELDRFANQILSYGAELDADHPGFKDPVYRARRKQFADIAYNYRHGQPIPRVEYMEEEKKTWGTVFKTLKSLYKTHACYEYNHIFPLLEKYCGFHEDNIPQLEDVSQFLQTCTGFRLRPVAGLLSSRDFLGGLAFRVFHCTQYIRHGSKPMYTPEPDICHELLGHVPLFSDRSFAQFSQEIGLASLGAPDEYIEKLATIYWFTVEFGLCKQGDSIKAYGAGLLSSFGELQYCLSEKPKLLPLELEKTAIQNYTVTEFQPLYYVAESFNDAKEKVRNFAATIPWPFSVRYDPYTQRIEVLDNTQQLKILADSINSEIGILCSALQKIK
Put plainly: Cell Based Phenylalanine Flux Assay. To be noted: 24 hrs with compound, then 20 μM sepiapterin and 800 μM 13C9,15N-Phenylalanine for 4 hours, 13C-Tyrosine by LC-MS, average where tested multiple times. Put shortly: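 AC50 is derived from LC-MS of 13C-tyrosine in the media after a 4 h pulse of 800 μM 13C9,15N-phenylalanine plus 20 μM sepiapterin. The A375 R408W PAH cells had received duplicate 10-point, 2-fold compound dilutions (0.5% DMSO) for 24 h beforehand.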

Where [1] appears, read: A375 cells expressing R408W PAH.

With `Cn1cc(-c2nnc(C(=O)N3CCc4[nH]cnc4[C@@H]3c3nc4cccc(F)c4o3)o2)cn1` [Example 192, (R)-(4-(7-fluorobenzo[d]oxazol-2-yl)-6,7-dihydro-1H-imidazo[4,5-c]pyridin-5(4H)-yl)(5-(1-methyl-1H-pyrazol-4-yl)-1,3,4-oxadiazol-2-yl)methanone], where the note is “A375 R408W cells”, the AC50 was 1 to 5 µM.
On the same count and under the same terms, with `Cc1cccc2nc([C@H]3c4nc[nH]c4CCN3C(=O)c3nnc(-c4ccn(C(F)F)n4)o3)oc12` [Example 859, (R)-(5-(1-(difluoromethyl)-1H-pyrazol-3-yl)-1,3,4-oxadiazol-2-yl)(4-(7-methylbenzo[d]oxazol-2-yl)-6,7-dihydro-1H-imidazo[4,5-c]pyridin-5(4H)-yl)methanone] the figure was 1 to 5 µM.
On to `CNC(C)(C)c1nc(C)c(C(=O)N2CCc3[nH]cnc3C2c2nc3cc(F)ccc3o2)o1` (single isomer, unassigned) [4R enantiomer of (2-{5-[4-(5-fluoro-1,3-benzoxazol-2-yl)-1H,], for which the AC50 under setting [1] was at least 5 µM.
For the molecule `O=C(c1ocnc1C(F)(F)F)N1Cc2[nH]cnc2[C@@H]1c1nc2ccccc2o1` [Example 943, (R)-(4-(benzo[d]oxazol-2-yl)-4,6-dihydropyrrolo[3,4-d]imidazol-5(1H)-yl)(4-(trifluoromethyl)oxazol-5-yl)methanone], the concentration at half-maximal activity (AC50) (A375 R408W cells) was 1 to 5 µM.
For `COCc1ncc(C(=O)N2CCc3[nH]cnc3C2c2nc3cc(F)ccc3o2)o1` (stereo not shown), the AC50 under setting [1] was at least 5 µM.
Consider `O=C(c1nnc(-c2ccccn2)o1)N1Cc2[nH]cnc2[C@@H]1c1nc2ccccc2o1` [Example 938, (R)-(4-(benzo[d]oxazol-2-yl)-4,6-dihydropyrrolo[3,4-d]imidazol-5(1H)-yl)(5-(pyridin-2-yl)-1,3,4-oxadiazol-2-yl)methanone], for which, where the note is “A375 R408W cells”, the AC50 is 1 to 5 µM.
Still for that read-out and setting: with `O=C(CCc1nccs1)N1CCc2[nH]cnc2[C@H]1c1nc2c(F)cccc2o1` [Example 397, (S)-1-(4-(4-fluorobenzo[d]oxazol-2-yl)-6,7-dihydro-1H-imidazo[4,5-c]pyridin-5(4H)-yl)-3-(thiazol-2-yl)propan-1-one] the figure was 0.5 to 1 µM; with `Cc1cc(C(=O)N2CCc3[nH]cnc3[C@H]2c2nc3cccc(C)c3o2)n(C)n1` [Example 781, (S)-(1,3-dimethyl-1H-pyrazol-5-yl)(4-(7-methylbenzo[d]oxazol-2-yl)-6,7-dihydro-1H-imidazo[4,5-c]pyridin-5(4H)-yl)methanone], at most 0.5 µM.
Regarding `O=C(c1ccnn1C(F)F)N1CCc2[nH]cnc2[C@H]1c1nc2ccc(F)cc2o1` [Example 189, (S)-(1-(difluoromethyl)-1H-pyrazol-5-yl)(4-(6-fluorobenzo[d]oxazol-2-yl)-6,7-dihydro-1H-imidazo[4,5-c]pyridin-5(4H)-yl)methanone], the AC50 (A375 R408W cells) was in the range of 0.5 to 1 µM.
On the same count and under the same terms, next, `CC(C)(O)c1nc(C(F)(F)F)c(C(=O)N2CCc3[nH]cnc3[C@H]2c2nc3cccc(F)c3o2)o1` [Example 253, (S)-(4-(7-fluorobenzo[d]oxazol-2-yl)-6,7-dihydro-1H-imidazo[4,5-c]pyridin-5(4H)-yl)(2-(2-hydroxypropan-2-yl)-4-(trifluoromethyl)oxazol-5-yl)methanone]: at most 0.5 µM.
In the case of `O=C(c1ocnc1C(F)F)N1CCc2[nH]cnc2[C@@H]1c1nc2cccc(C(F)(F)F)c2o1` [Example 494, (R)-(4-(difluoromethyl)oxazol-5-yl)(4-(7-(trifluoromethyl)benzo[d]oxazol-2-yl)-6,7-dihydro-1H-imidazo[4,5-c]pyridin-5(4H)-yl)methanone], the concentration at half-maximal activity (AC50) (A375 R408W cells) was at most 0.5 µM.
Consider `O=C(c1ccnn1C1CC1)N1CCc2[nH]cnc2[C@@H]1c1nc2cccc(F)c2o1` [Example 728, (R)-(1-cyclopropyl-1H-pyrazol-5-yl)(4-(7-fluorobenzo[d]oxazol-2-yl)-6,7-dihydro-1H-imidazo[4,5-c]pyridin-5(4H)-yl)methanone], for which, under “A375 R408W cells”, the AC50 is at least 5 µM.
The same measure, in the same setting: next, `Cc1ccc2c(C(=O)N3CCc4[nH]cnc4[C@H]3c3nc4cccc(F)c4o3)cnn2c1` [Example 323, (S)-(4-(7-fluorobenzo[d]oxazol-2-yl)-6,7-dihydro-1H-imidazo[4,5-c]pyridin-5(4H)-yl)(6-methylpyrazolo[1,5-a]pyridin-3-yl)methanone]: at most 0.5 µM; `O=C(c1oc(-c2ncccn2)nc1C(F)F)N1CCc2[nH]cnc2[C@@H]1c1nc2cc(F)ccc2o1` [Example 662, (R)-(4-(difluoromethyl)-2-(pyrimidin-2-yl)oxazol-5-yl)(4-(5-fluorobenzo[d]oxazol-2-yl)-6,7-dihydro-1H-imidazo[4,5-c]pyridin-5(4H)-yl)methanone]: 1 to 5 µM.
`Cc1nc(C2(O)CC2)oc1C(=O)N1CCc2[nH]cnc2C1c1nc2cc(F)ccc2o1` (stereo not shown): the AC50 under setting [1] is 1 to 5 µM.
As to `O=C(c1cnco1)N1CCc2[nH]cnc2[C@@H]1c1nc2c(F)ccc(F)c2o1` [Example 484, (R)-(4-(4,7-difluorobenzo[d]oxazol-2-yl)-6,7-dihydro-1H-imidazo[4,5-c]pyridin-5(4H)-yl)(oxazol-5-yl)methanone], the AC50 (A375 R408W cells) fell in the range of 1 to 5 µM.
As to `CC(C)n1nccc1C(=O)N1CCc2[nH]cnc2[C@@H]1c1nc2ccccc2o1` [Example 751, (R)-(4-(benzo[d]oxazol-2-yl)-6,7-dihydro-1H-imidazo[4,5-c]pyridin-5(4H)-yl)(1-isopropyl-1H-pyrazol-5-yl)methanone], the AC50 (A375 R408W cells) is 1 to 5 µM.
With `C[C@H](O)c1nc(C(F)F)c(C(=O)N2CCc3[nH]cnc3[C@@H]2c2nc3ccc(F)cc3o2)o1` [Example 232, (4-(difluoromethyl)-2-((S)-1-hydroxyethyl)oxazol-5-yl)((R)-4-(6-fluorobenzo[d]oxazol-2-yl)-6,7-dihydro-1H-imidazo[4,5-c]pyridin-5(4H)-yl)methanone], the AC50 (A375 R408W cells) lay in the range of 1 to 5 µM.
For the molecule `O=C(c1ocnc1C(F)(F)F)N1CCc2[nH]cnc2[C@@H]1c1nc2c(F)cccc2o1` [Example 168, (R)-(4-(4-fluorobenzo[d]oxazol-2-yl)-6,7-dihydro-1H-imidazo[4,5-c]pyridin-5(4H)-yl)(4-(trifluoromethyl)oxazol-5-yl)methanone], the AC50 (A375 R408W cells) fell in the range of 1 to 5 µM.
Still for that read-out and setting: next, `CC(C)(O)c1nc(C(F)F)c(C(=O)N2CCc3[nH]cnc3[C@@H]2c2nc3cc(Cl)ccc3o2)o1` [Example 376, (R)-(4-(5-chlorobenzo[d]oxazol-2-yl)-6,7-dihydro-1H-imidazo[4,5-c]pyridin-5(4H)-yl)(4-(difluoromethyl)-2-(2-hydroxypropan-2-yl)oxazol-5-yl)methanone]: 1 to 5 µM.
For `O=C(c1ccnn1C(F)F)N1CCc2[nH]cnc2[C@H]1c1nc2c(F)ccc(F)c2o1` [Example 487, (S)-(4-(4,7-difluorobenzo[d]oxazol-2-yl)-6,7-dihydro-1H-imidazo[4,5-c]pyridin-5(4H)-yl)(1-(difluoromethyl)-1H-pyrazol-5-yl)methanone], for the setting “A375 R408W cells”, the AC50 was at most 0.5 µM.
As to `CC(C)(O)c1nc(C(F)(F)F)c(C(=O)N2CCc3[nH]cnc3[C@H]2c2nc3cc(F)ccc3o2)o1` [Example 45, (S)-(4-(5-fluorobenzo[d]oxazol-2-yl)-6,7-dihydro-1H-imidazo[4,5-c]pyridin-5(4H)-yl)(2-(2-hydroxypropan-2-yl)-4-(trifluoromethyl)oxazol-5-yl)methanone], the half-maximal activity concentration (AC50) (A375 R408W cells) is at most 0.5 µM.
Consider `Cn1nc(C(C)(C)C)nc1C(=O)N1CCc2[nH]cnc2C1c1nc2ccccc2o1` (stereo not shown), for which the concentration at half-maximal activity (AC50) under setting [1] was at least 5 µM.
For `CN(C)c1ccc2c(C(=O)N3CCc4[nH]cnc4[C@@H]3c3nc4cc(F)ccc4o3)cnn2c1` [Example 92, (R)-(6-(dimethylamino)pyrazolo[1,5-a]pyridin-3-yl)(4-(5-fluorobenzo[d]oxazol-2-yl)-6,7-dihydro-1H-imidazo[4,5-c]pyridin-5(4H)-yl)methanone], for the setting “A375 R408W cells”, the AC50 is at least 5 µM.
On the same count and under the same terms, next, `Cn1cc(-c2nnc(C(=O)N3CCc4[nH]cnc4[C@@H]3c3nc4ccc(F)c(F)c4o3)o2)cn1` [Example 516, (R)-(4-(6,7-difluorobenzo[d]oxazol-2-yl)-6,7-dihydro-1H-imidazo[4,5-c]pyridin-5(4H)-yl)(5-(1-methyl-1H-pyrazol-4-yl)-1,3,4-oxadiazol-2-yl)methanone]: 1 to 5 µM.
As for `O=C(c1cnn2cc(N3CCC(O)CC3)ccc12)N1CCc2[nH]cnc2C1c1nc2ccc(F)c(F)c2o1` (stereo not shown), the AC50 under setting [1] was 1 to 5 µM.
Take `COc1ccc2c(C(=O)N3CCc4[nH]cnc4[C@@H]3c3nc4cccc(F)c4o3)cnn2c1` [Example 326, (R)-(4-(7-fluorobenzo[d]oxazol-2-yl)-6,7-dihydro-1H-imidazo[4,5-c]pyridin-5(4H)-yl)(6-methoxypyrazolo[1,5-a]pyridin-3-yl)methanone]: the AC50 (A375 R408W cells) is 1 to 5 µM.
In the case of `Cc1ccc2nc([C@H]3c4nc[nH]c4CCN3C(=O)c3ocnc3C(F)(F)F)oc2c1` [Example 58, (R)-(4-(6-methylbenzo[d]oxazol-2-yl)-6,7-dihydro-1H-imidazo[4,5-c]pyridin-5(4H)-yl)(4-(trifluoromethyl)oxazol-5-yl)methanone], under “A375 R408W cells”, the AC50 was at most 0.5 µM.
